From patent US4200628A, “Novel aminoglycoside derivatives” (Shionogi & Co., Ltd., priority 1977, dated 1980)
≈ marks a conversion by molar mass, not a printed value.

How the values were obtained:
Assay in all cases: MIC, antimicrobial activity
Format in all cases: cell-based
[1] = system: Staphylococcus epidermidis TB-775; details: for MIC: Staphylococcus epidermidis, TB775, Staphylococcus epidermidis TB-775, tobramycin resistant strain, read-out: Minimum Inhibitory Concentration (MIC); for Minimum Inhibitory Concentration (MIC): Staphylococcus epidermidis TB-775, tobramycin resistant strain
Proteus vulgaris TB-615 = details: for Minimum Inhibitory Concentration (MIC): Proteus vulgaris TB-615, tobramycin resistant strain; for MIC: Proteus vulgaris, TB615, Proteus vulgaris TB-615, tobramycin resistant strain, read-out: Minimum Inhibitory Concentration (MIC)
[2] = system: Pseudomonas aeruginosa TB-121; details: for Minimum Inhibitory Concentration (MIC): Pseudomonas aeruginosa TB-121, tobramycin resistant strain; for MIC: Pseudomonas aeruginosa, TB121, Pseudomonas aeruginosa TB-121, tobramycin resistant strain, read-out: Minimum Inhibitory Concentration (MIC)
[3] = system: Pseudomonas aeriginosa TB-151; details: for Minimum Inhibitory Concentration (MIC): Pseudomonas aeriginosa TB-151, tobramycin resistant strain; for MIC: Pseudomonas, TB151, read-out: Minimum Inhibitory Concentration (MIC), Pseudomonas aeriginosa TB-151, tobramycin resistant strain

Compound | MIC [1] [µg/mL] | Minimum Inhibitory Concentration (MIC) (Proteus vulgaris TB-615) [µg/mL] | Minimum Inhibitory Concentration (MIC) [2] [µg/mL] | Minimum Inhibitory Concentration (MIC) [3] [µg/mL] | MIC (Proteus vulgaris TB-615) [µg/mL] | MIC [3] [µg/mL] | Minimum Inhibitory Concentration (MIC) [1] [µg/mL] | MIC [2] [µg/mL]
NC[C@H]1O[C@H](O[C@H]2[C@H](O)[C@@H](O[C@H]3O[C@H](CO)[C@@H](O)[C@H](N)[C@H]3O)[C@H](NC(=O)C(O)C3CNCCN3)C[C@@H]2N)[C@H](N)C[C@@H]1O (single isomer, unassigned) [(8), 1-N-[2-hydroxy-2-(piperazin-2-yl)acetyl]tobramycin] | 25 (≈ 41 µM) | 12.5 | 6.2 | 6.2 |  |  |  | 
NC[C@H]1O[C@H](O[C@H]2[C@H](O)[C@@H](O[C@H]3O[C@H](CO)[C@@H](O)[C@H](N)[C@H]3O)[C@H](N)C[C@@H]2N)[C@H](N)C[C@@H]1O [TOB, tobramycin, reference compound] |  |  |  |  | 25 (≈ 53.5 µM) | 100 (≈ 214 µM) |  | 
NC[C@H]1O[C@H](O[C@H]2[C@H](O)[C@@H](O[C@H]3O[C@H](CO)[C@@H](O)[C@H](N)[C@H]3O)[C@H](NC(=O)C(O)C3CCCN3)C[C@@H]2N)[C@H](N)C[C@@H]1O (some centres unmarked) [(7), 1-N-[2-hydroxy-2-(pyrrolidin-2-yl)acetyl]tobramycin] |  | > 100.0 | 100.0 | 50.0 |  |  | > 100.0 | 
NC[C@H]1O[C@H](O[C@H]2[C@H](O)[C@@H](O[C@H]3O[C@H](CO)[C@@H](O)[C@H](N)[C@H]3O)[C@H](NC(=O)C(O)C3CCN3)C[C@@H]2N)[C@H](N)C[C@@H]1O (some centres unmarked) [(2), 1-N-[2-hydroxy-2-(azetidin-2-yl)acetyl]tobramycin] | 100 (≈ 172 µM) |  |  |  | > 100 | 12.5 (≈ 21.5 µM) |  | 12.5 (≈ 21.5 µM)
NC[C@H]1O[C@H](O[C@H]2[C@H](O)[C@@H](O[C@H]3O[C@H](CO)[C@@H](O)[C@H](N)[C@H]3O)[C@H](NC(=O)C(O)C3CCCN3)C[C@@H]2N)[C@H](N)C[C@@H]1O (some centres unmarked) [(6), 1-N-[2-hydroxy-2-(pyrrolidin-2-yl)acetyl]tobramycin] |  | 25.0 | 6.2 | 12.5 |  |  | 50.0 | 
NC[C@H]1O[C@H](O[C@H]2[C@H](O)[C@@H](O[C@H]3O[C@H](CO)[C@@H](O)[C@H](N)[C@H]3O)[C@H](NC(=O)C(O)C3CCCN3)C[C@@H]2N)[C@H](N)C[C@@H]1O (some centres unmarked) [(5), 1-N-[2-hydroxy-2-(pyrrolidin-2-yl)acetyl]tobramycin] | 100 (≈ 168 µM) | 100.0 | 25.0 | 100.0 |  |  |  | 
NC[C@H]1O[C@H](O[C@H]2[C@H](O)[C@@H](O[C@H]3O[C@H](CO)[C@@H](O)[C@H](N)[C@H]3O)[C@H](NC(=O)C(O)C3CNC3)C[C@@H]2N)[C@H](N)C[C@@H]1O (some centres unmarked) [(3), 1-N-[2-hydroxy-2-(azetidin-3-yl)acetyl]tobramycin] | 6.2 (≈ 10.7 µM) |  |  |  | 12.5 (≈ 21.5 µM) | 3.1 (≈ 5.34 µM) |  | 3.1 (≈ 5.34 µM)
NC[C@H]1O[C@H](O[C@H]2[C@H](O)[C@@H](O[C@H]3O[C@H](CO)[C@@H](O)[C@H](N)[C@H]3O)[C@H](NC(=O)C(O)C3CCNC3)C[C@@H]2N)[C@H](N)C[C@@H]1O (some centres unmarked) [(1), 1-N-[2-hydroxy-2-(pyrrolidin-3-yl)acetyl]tobramycin] | 6.2 (≈ 10.4 µM) |  |  |  | 12.5 (≈ 21 µM) | 6.2 (≈ 10.4 µM) |  | 6.2 (≈ 10.4 µM)
NC[C@H]1O[C@H](O[C@H]2[C@H](O)[C@@H](O[C@H]3O[C@H](CO)[C@@H](O)[C@H](N)[C@H]3O)[C@H](NC(=O)C(O)C3CNCCN3)C[C@@H]2N)[C@H](N)C[C@@H]1O (single isomer, unassigned) [(9), 1-N-[2-hydroxy-2-(piperazin-2-yl)acetyl]tobramycin] |  | 50.0 | 12.5 | 25.0 |  |  | 50.0 | 
NC[C@H]1O[C@H](O[C@H]2[C@H](O)[C@@H](O[C@H]3O[C@H](CO)[C@@H](O)[C@H](N)[C@H]3O)[C@H](NC(=O)C(O)C3CCCNC3)C[C@@H]2N)[C@H](N)C[C@@H]1O (some centres unmarked) [(4), 1-N-[2-hydroxy-2-(piperidin-3-yl)acetyl]tobramycin] | 25 (≈ 41.1 µM) |  |  |  | 25 (≈ 41.1 µM) | 25 (≈ 41.1 µM) |  | 25 (≈ 41.1 µM)
